Assay results as given in patent publication US7470669B2, “Isolated polypeptide comprising a leptin fragment” (Serono Genetics Institute, S.A., priority 1999, dated 2008).

Assays:
[1] = tested on: bovine brain capillary endothelial cells; experiment: Leptin transcytosis in blood-brain barrier in vitro model; assay type: cell-based; conditions: for leptin transport / transcytosis: 10 ng/mL 125I-leptin + 50 μg/mL peptide
Method: Cells were incubated with ^125I-leptin alone (10,000 dpm/ng) (closed squares), with 1 μg/mL unlabelled leptin (triangles), 50 μg/mL MP (circles), 50 μg/mL HP (open squares), or 2 mg/mL lactoferrin (asterisks).
Human leptin transport through the blood-brain barrier (BBB) is studied using an in vitro model (Dehouck, et al J Neurochem 54:1798-801, 1990 hereby incorporated herein by reference in its entirety including any figures, tables, or drawings). This model closely mimics the in vivo situation with regard to the selective passage of nutrients and drugs through the cerebro-vascular endothelium. […] Briefly, this model consists of a co-culture of bovine brain capillary endothelial cells (ECs) and rat astrocytes (FIG. 31). The astrocytes are seeded on the plastic of a six-well dish and grown for 3 weeks. A collagen-coated filter is then set in each dish and bovine ECs are plated on the upper-side of the filter. ECs form a confluent monolayer in 5 days and they are used for experiments after 16 days of coculture with astrocytes.
Leptin transcytosis: Experiments were performed on brain capillary endothelial cells in coculture with astrocytes for 16 days. On the day of the experiment, ECs were transferred to a clean 6-well plate containing 2 mL of Ringer-Hepes buffer (see, FIG. 32). At time 0, 1 mL Ringer Hepes containing ^125I-leptin was placed in the upper compartment. After 30, 60, 120, or 180 min incubation at 37° C. on a rocking platform, the insert was transferred into another well of a six-well plate to minimize the possible passage of substances from the lower to the upper compartment. At the end of the experiment, the amount of radioactivity of each well was counted. […]
The transport of molecules through the endothelial monolayer was determined for each time point as % passage: % passage of radiolabelled molecule through the endothelium: dpm found in the lower compartment at a time point divided by the initial dpm found in the upper compartment: % transport at 30 min=(lower dpm t30/upper dpm)*100.

LSR = LSR activity (oleate-induced 125I-LDL binding, uptake, degradation) in PLC cells; assay type: cell-based, human; conditions: for LSR activity in human cells: 22-mer peptide, increasing concentrations
Method: FIGS. 5A, 5B, 5C, and 5D show the stimulatory effect of leptin on LSR activity in PLC and suppression of this effect by 81B antibody. For FIGS. 5A, 5B, and 5C, cultured PLC cells were incubated at 37° C. for 30 min with increasing concentrations of human recombinant leptin in Buffer A. After this, 0.5 mM oleate and 20 μg/mL ^125I-LDL were added, and cells were further incubated at 37° C. for 2 h. Cells were washed, and the amount of oleate-induced ^125I-LDL bound (5A), internalized (5B) and degraded (5C) were measured. For FIG. 5D, PLC cells were incubated at room temperature for 30 min with 200 μg/mL anti-LSR peptide 81B or 170 antibody, followed by incubation at 37° C. for 30 min without (open bar) or with (hatched bar) 10 ng/mL human leptin. Oleate (0.5 mM) and ^125I-LDL (20 μg/mL) were added, and the monolayers were left at 37° C. for 3 h. After washing, the amount of ^125I-LDL binding was determined, and is shown here as the mean±SD of triplicate determinations.
FIGS. 8A and 8B show the effect of mouse or human leptin on LSR activity in primary cultures of rat hepatocytes or a human liver cell line (PLC). Primary cultured rat hepatocytes were obtained commercially (In Vitro Tech). The PLC cell line was obtained from ATCC repository and maintained in culture. Rat hepatocytes 72 h after plating (8A) or confluent monolayers of PLC (8B) were incubated 30 min at 37° C. with 0 (closed bar) or 10 ng/mL of human (open bar) or mouse (hatched bar) recombinant leptin. Following this, 0.5 mM oleate and 20 μg/mL ^125I-LDL were added and the cells were further incubated for 2 h at 37° C. […] The cells were washed, and the amount of oleate-induced ^125I-LDL bound and degraded was measured as described previously (Bihain, B. E., and Yen, F. T. (1992). Free fatty acids activate a high-affinity saturable pathway for degradation of low density lipoproteins infibroblasts from a subject homozygous for familial hypercholesterolemia. Biochemistry 31, 4628-4636.
FIGS. 35A and 35B show graphs of LSR activity and mRNA expression measured in PLC cells preincubated 24 h with leptin. In FIG. 35A, PLC monolayers were incubated 24 h at 37° C. with (o) or without (n) 200 ng/mL human recombinant leptin. After washing with PBS, cells were incubated 30 min at 37° C. with increasing concentrations of human leptin, followed by a 2 h incubation at 37° C. with 0.8 mM oleate and 20 μg/mL ^125I-LDL. Cells were washed, and the amount of oleate-induced ^125I-LDL binding was measured as described previously. Results are shown as the mean of triplicate determinations. In FIG. 35B, PLC monolayers were incubated 24 h at 37° C. with 0, 200, or 400 ng/mL human recombinant leptin. After washing with PBS, the cells were harvested. Total RNA was prepared from the cell pellets, and Northerns were performed to detect LSR mRNA, using GAPDH probe as loading control as described previously. Northern blots were scanned on the Phosphorimager (Molecular Dynamics, Sunnyvale, Calif.). Densitometric analysis of the images was performed using the software ImageQuant. Results are shown as the amount of LSR signal relative to that of GAPDH (mean±SD, n=3/condition). […]

Row | Substance | leptin transport / transcytosis [1] | LSR activity in human cells (LSR; PLC cells) | reduction of the amount of 125I-leptin transported ([1]; 10 ng/mL 125I-leptin + 1 μg/mL cold leptin) | leptin concentration at which the effect on LSR activity was observed (LSR; PLC cells, human recombinant leptin) [ng/mL] | oleate-induced LSR binding uptake and degradation of 125I-LDL (LSR; PLC cells, human recombinant leptin, 30 min preincubation, 0.5 mM oleate) | leptin concentration needed for maximal stimulatory effect (LSR; PLC preincubated 24 h with 200 ng/mL leptin) [ng/mL] | reduction of the maximal stimulatory effect on oleate-induced 125I-LDL binding (LSR; PLC preincubated 24 h with 200 ng/mL leptin, then short incubation with leptin)
1 | CHLPWASGLETLDSLGGVLEAS (listed as Homo sapiens) [human peptide, human leptin fragment residues 117-138, 22-mer] | significant increase | agonistic |  |  |  |  | 
2 | CSLPQTSGLQKPESLDGVLEAS (listed as Mus musculus) [mouse peptide, mouse leptin fragment residues 117-138, 22-mer] | no significant effect | antagonist |  |  |  |  | 
3 | leptin: plasma protein of 16 kDa produced by adipocytes; recombinant human or mouse leptin, species depends on the experiment |  |  | approximately 30% | ≥ 10 | directly increased | 100 | about 50%
